{"source": "patent US5086047A", "about": "“Novel steroids” (Roussel Uclaf, Department des Brevets, priority 1989, dated 1992)", "key": {"[1]": {"target": "T1, aromatase (cytochrome P450 aromatase) (Homo sapiens, UniProt P11511)", "T1 construct": "This supernatant was then subjected to an ultra-centrifugation stage (90 minutes, 150,000 g) to obtain the microsomal deposit; from tissue; host or cells: human placenta, microsomal fraction", "T1 sequence (P11511 1-503)": "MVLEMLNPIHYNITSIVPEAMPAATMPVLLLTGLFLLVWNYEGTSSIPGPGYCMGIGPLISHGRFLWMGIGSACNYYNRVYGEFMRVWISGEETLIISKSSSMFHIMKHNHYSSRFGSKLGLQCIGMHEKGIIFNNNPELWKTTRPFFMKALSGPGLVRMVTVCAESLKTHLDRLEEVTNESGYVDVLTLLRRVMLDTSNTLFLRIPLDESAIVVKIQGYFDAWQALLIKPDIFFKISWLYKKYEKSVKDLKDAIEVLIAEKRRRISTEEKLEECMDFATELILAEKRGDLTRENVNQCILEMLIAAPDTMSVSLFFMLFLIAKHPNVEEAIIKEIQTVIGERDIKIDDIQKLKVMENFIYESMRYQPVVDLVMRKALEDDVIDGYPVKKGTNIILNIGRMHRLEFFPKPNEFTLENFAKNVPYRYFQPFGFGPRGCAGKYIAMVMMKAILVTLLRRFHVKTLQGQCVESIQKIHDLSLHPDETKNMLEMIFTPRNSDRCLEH", "assay": "Aromatase inhibition in vitro, human placental microsomes, tritiated water release from 1β,2β-(H^3)-Androstenedione", "format": "biochemical", "protocol": "Inhibition dependent on the concentration (measurement of the IC50 =concentration of the inhibitor necessary to reduce the enzymatic activity by 50%).\nHuman placentas were used which were washed one hour at most after delivery, perfused with physiological serum (5 liters) via the umbilical vein and then deep-frozen at -40° C.\nThe placentas were thawed at 4° C. and then homogenized (1:3) in a 10 mM phosphate buffer, pH=7.0 containing 100 millimoles of potassium chloride (KCl), 10 millimoles of dithiothreitol (DTT), 10 millimoles of ethylenediamine-tetraacetic acid (EDTA), 40 millimoles of nicotinamide and 250 millimoles of sucrose. The homogenates were then subjected to different phases of centrifugation until the \"9000 g\" supernatant was obtained (corresponding to cytosol and to endoplasmic reticulum). This supernatant was then subjected to an ultra-centrifugation stage (90 minutes, 150,000 g) to obtain the microsomal deposit. The microsomes were then resuspended in a 50 mM phosphate buffer, pH=7.4, containing 100 millimoles KCl, 1 millimole EDTA, 1 millimole DTT and glycerol (10%). The microsomal suspension was aliquoted and the fractions deep-frozen at the temperature of liquid nitrogen. The concentration of proteins in the microsomal suspension was determined by the BRADFORD method (BRADFORD., Anal. Biochem., Vol. 72, (1976) 248).\nTo 960 microliters of phosphate buffer (50 millimoles, pH=7.2) 2.5 millimoles glucose-6-phosphate, and containing 0.16 international units of glucose-6-phosphate dehydrogenase (G-6-PDH), the following were added in this order:\n1) -10 microliters of inhibitor solubilized in dimethyl-sulfoxide (DMSO) to give final concentrations from 10^-5 M to 10^-10 M.\n2) -10 microliters of substrate which was 500 nM Androstenedione solubilized in ethanol and containing 1β,- 2β-(H^3)-Androstenedione in a known isotopic dilution (approx. 200,000 disintegrations per minute).\n3) 10 microliters of microsomal suspension equivalent to 25 micrograms of proteins per test.\nThe enzymatic reaction was then very rapidly initiated by the addition of 10 microliters of reduced nicotinamide adenine dinucleotide phosphate (NADPH) solubilized in water. After stirring, each test was incubated at 37° C. for 10 minutes. The reaction was then stopped by the addition of chloroform (4 ml).\nAfter vigorous stirring of the tubes, they were decanted and centrifuged at 4° C. for 10 minutes at a speed of 3000 r.p.m. (rotations per minute), that is 600 X g. After centrifuging, and for each tube, 100 microliters of supernatant was removed and counted in the presence of a scintillating liquid. This method was derived from the procedures described by Reed et al, (J. Biol. Chem., Vol. 251, (1976), p. 1625) and Thompson et al, (J. Biol. Chem., Vol. 249, (1974), p. 5364). The enzymatic activity (aromatase) was proportional to the percentage of tritium salted out in the form of tritiated water (H^3 20) in the course of the reaction. The inhibition obtained for each concentration of each inhibiting product of the invention was calculated as a percentage of the controls (arbitrary 100%, obtained in the absence of any inhibitor). The CI50 was equal to the concentration of inhibitor necessary to decrease the enzymatic activity by 50% and the values of the CI50 's obtained for the inhibiting products of the invention are as follows: […]"}, "[2]": {"test_system": "seric estradiol", "assay": "Amount of estradiol circulating in rats induced with P.M.S.G.", "format": "in vivo, rat", "conditions": "female rats, PMSG 100 I.U., ** p<0.01", "protocol": "I-AMOUNT OF ESTRADIOL CIRCULATING IN RATS INDUCED WITH P.M.S.G.\n(Pregnant Mare Serum Gonadotrophine)\nFemale rats weighing 150 g were induced by an injection of P.M.S.G. (100 I.U./rat/sc). After 90 hours, the animals were treated with the product under test (sc or po) and a blood sample was taken before and after treatment to measure the amount of seric estradiol.\nDO, -90 h: injection of 100 I.U. of PMSG/rat.\nDO, 0 h: sample of blood from […] then treatment with the product under test.\nDO, +2 h: sample of blood.\nDO, +6 h: killing of animals and collection of blood.\nAfter coagulation and centrifugation of the blood, the serum was recovered which was dosed with estradiol (E2) by means of an RIA dosage kit (Baxter ER155). The results were expressed as a percentage variation relative to the amount of estradiol at time 0 (each animal is its own control). The statistical test used is the Mann-Whitney U-test (*:p<0.05; **:p<0.01)."}, "[3]": {"conditions": "human placental microsomes, Androstenedione 500 nM, 37° C., 10 minutes, read-out: CI50 (concentration of inhibitor necessary to decrease the enzymatic activity by 50%)"}, "[4]": {"conditions": "Parenterally (so in the source), 5 mg/kg"}}, "note": "pIC50: −log10 of the molar value. Read-outs that look alike come from different tables or passages of the source.", "data": [{"smiles": "CSCC[C@]12CC[C@H](O)C=C1CC[C@@H]1C2=CC[C@]2(C)[C@@H](O)CC[C@@H]12", "note": "[26 (3 beta OH), 10β-[2-(methylthio)-ethyl]-Δ^4,9(11) estradien-3β,17β-diol]", "values": [{"measurement": "pIC50", "setting": "[1]; [3]", "result": 6.78}, {"measurement": "percentage variation relative to the amount of estradiol at time 0, +2 h", "setting": "[2]; [4]", "result": -63, "unit": "percentage variation"}, {"measurement": "percentage variation relative to the amount of estradiol at time 0, +6 h", "setting": "[2]; [4]", "result": -64, "unit": "percentage variation"}]}, {"smiles": "CSCC[C@]12CCC(=O)C=C1CC[C@@H]1C2=CC[C@]2(C)C(=O)CC[C@@H]12", "note": "[Example 1, 10β-[2-(methylthio)-ethyl]-Δ^4,9(11) -estradiene-3,17-dione]", "values": [{"measurement": "pIC50", "setting": "[1]", "result": 7.70}, {"measurement": "percentage variation relative to the amount of estradiol at time 0, +2 h", "setting": "[2]; [4]", "result": -51, "unit": "percentage variation"}, {"measurement": "percentage variation relative to the amount of estradiol at time 0, +6 h", "setting": "[2]; [4]", "result": -51, "unit": "percentage variation"}, {"measurement": "percentage variation relative to the amount of estradiol at time 0, +2 h", "setting": "[2]; Subcutaneously, 1 mg/kg", "result": -55, "unit": "percentage variation"}, {"measurement": "percentage variation relative to the amount of estradiol at time 0, +6 h", "setting": "[2]; Subcutaneously, 1 mg/kg", "result": -68, "unit": "percentage variation"}]}, {"smiles": "CCSCC[C@]12CCC(=O)C=C1CC[C@@H]1C2=CC[C@]2(C)C(=O)CC[C@@H]12", "note": "[Example 2]", "values": [{"measurement": "pIC50", "setting": "[1]; [3]", "result": 6.06}]}, {"smiles": "CSCC[C@]12CCC(=O)C=C1CC[C@@H]1C2=CC[C@]2(C)[C@@H](O)CC[C@@H]12", "note": "[Example 13, 10β-[2-(methylthio)-ethyl]-Δ^4,9(11) -estradien-17-ol-3-one]", "values": [{"measurement": "pIC50", "setting": "[1]; [3]", "result": 7.30}, {"measurement": "percentage variation relative to the amount of estradiol at time 0, +2 h", "setting": "[2]; [4]", "result": -70, "unit": "percentage variation"}, {"measurement": "percentage variation relative to the amount of estradiol at time 0, +6 h", "setting": "[2]; [4]", "result": -53, "unit": "percentage variation"}, {"measurement": "percentage variation relative to the amount of estradiol at time 0, +2 h", "setting": "[2]; Subcutaneously, 1 mg/kg", "result": -56, "unit": "percentage variation"}, {"measurement": "percentage variation relative to the amount of estradiol at time 0, +6 h", "setting": "[2]; Subcutaneously, 1 mg/kg", "result": -60, "unit": "percentage variation"}]}, {"smiles": "C#CSCC[C@]12CCC(=O)C=C1CC[C@@H]1C2=CC[C@]2(C)C(=O)CC[C@@H]12", "note": "[Example 21, 10β-[2-(ethynylthio)-ethyl]-Δ^4,9(11) -estradiene-3,17-dione]", "values": [{"measurement": "pIC50", "setting": "[1]; [3]", "result": 6.48}]}, {"smiles": "C[C@]12CC=C3[C@@H](CCC4=CC(=O)CC[C@@]43CCSCF)[C@@H]1CCC2=O", "note": "[Example 22]", "values": [{"measurement": "pIC50", "setting": "[1]; [3]", "result": 6.30}]}, {"smiles": "CSCC[C@]12CC[C@@H](O)C=C1CC[C@@H]1C2=CC[C@]2(C)[C@@H](O)CC[C@@H]12", "note": "[Example 26 (3 alpha OH)]", "values": [{"measurement": "percentage variation relative to the amount of estradiol at time 0, +2 h", "setting": "[2]; [4]", "result": -53, "unit": "percentage variation"}, {"measurement": "percentage variation relative to the amount of estradiol at time 0, +6 h", "setting": "[2]; [4]", "result": -53, "unit": "percentage variation"}]}, {"smiles": "CSCC[C@]12CCC(=O)C=C1CC[C@@H]1C2=CC[C@]2(C)[C@@H](OC(=O)CCC(=O)O)CC[C@@H]12", "note": "[Example 27, Butanedioate of 10β-[2-(methylthio)-ethyl]-3-oxo-Δ^4,9(11) -estradien-17β-yl and of sodium]", "values": [{"measurement": "percentage variation relative to the amount of estradiol at time 0, +2 h", "setting": "[2]; [4]", "result": -58, "unit": "percentage variation"}, {"measurement": "percentage variation relative to the amount of estradiol at time 0, +6 h", "setting": "[2]; [4]", "result": -45, "unit": "percentage variation"}, {"measurement": "percentage variation relative to the amount of estradiol at time 0, +2 h", "setting": "[2]; Subcutaneously, 1 mg/kg", "result": -56, "unit": "percentage variation"}, {"measurement": "percentage variation relative to the amount of estradiol at time 0, +6 h", "setting": "[2]; Subcutaneously, 1 mg/kg", "result": -20, "unit": "percentage variation"}]}, {"smiles": "CSCC[C@]12CCC(=O)CC1CC[C@@H]1C2=CC[C@]2(C)C(=O)CC[C@@H]12", "note": "(stereo partly drawn) [Example 31, 10β-[2-(methylthio)-ethyl]-Δ^9(11) -estren-3,17-dione]", "values": [{"measurement": "pIC50", "setting": "[1]; [3]", "result": 8.26}, {"measurement": "percentage variation relative to the amount of estradiol at time 0, +2 h", "setting": "[2]; [4]", "result": -69, "unit": "percentage variation"}, {"measurement": "percentage variation relative to the amount of estradiol at time 0, +6 h", "setting": "[2]; [4]", "result": -56, "unit": "percentage variation"}]}]}
